Patent US8093244B2, “Heteroaryl urea derivatives useful for inhibiting CHK1” (ICOS Corporation, priority 2005, dated 2012)

Assays:
Chk1 [1] = test: Western blot of Chk1 phosphorylation at serines 317 and 345 in HT29 cells (Example 9); format: cell-based, human; settings: 20 μM for two h, 22 additional h
Excerpt: To determine whether an agent is a Chk1 activator, the phosphorylation state of Chk1 can be measured using phospho-specific antibodies to specific phosphorylation sites on Chk1. […] Liu et al., Genes Dev. 14:1448-1459, 2000; Zhao et al., Mol. Cell Biol. 21:4129-4139, 2001; Lopez-Girona et al., Proc. Natl. Acad. Sci. U.S.A. 98:11289-11294, 2001; Guo et al., Genes Dev. 14:2745-2756, 2000; Gatei et al., J. Biol. Chem. 278:14806-14811, 2003; Ng et al., J Biol Chem. 279 (10):8808-19, 2004; Wang et al., Natl Acad Sci USA. 100(26):15387-92, 2003; Stojic et al., Genes Dev. 18(11):1331-44, 2004. These serine sites are phosphorylated by upstream checkpoint kinases, Atm and Atr. Liu et al., Genes Dev. 14:1448-1459, 2000; Zhao et al. Mol. Cell Biol., 21:4129-4139, 2001).
The phosphorylation of these sites in response to a candidate Chk1 activator can be monitored by Western blot or immunohistochemistry of tumor cells. […] HT29 cells are treated with 20 μM gemcitabine for two h. The gemcitabine is washed out of the cell growth media and cells are incubated for 22 additional h. Protein lysates are prepared and separated by an SDS-polyacrylamide gel electrophoresis. Proteins are transferred to PVDF membranes and probed with antisera (Cell Signalling) specific for either phosphorylated serine 317 or 345 (Cell Signalling).

[2] = test system: xenograft tumors of colon tumor cell lines; test: Xenograft animal tumor models (Example 11); format: in vivo, Balb/c (nu/nu) mice; settings: 160 mg/kg intraperitoneal
Excerpt: To test the ability of the Chk1 inhibitors of the invention to enhance the killing of tumors by DNA damaging agents in mice, xenograft tumor models using colon tumor cell lines are established. 5-fluorouracil (5-FU) or gemcitabine can be used as DNA damaging agents. HT29 and Colo205 (human colon carcinoma) and H460 and Calu-6 (nonsmall cell carcinoma) cells can be used to propagate xenograft tumors in 6-8 week old female […] Balb/c (nu/nu) mice. Mice are maintained in a laminar airflow cabinet under pathogen-free conditions and fed sterile food and water ad libitum. Cell lines are grown to subconfluence in RPMI 1640 media supplemented with 10% FBS, 100 U/mL penicillin, 100 μg/mL streptomycin, and 1.5 mM L-glutamine in a 5% CO2 humidified environment. Single cell suspensions are prepared in CMF-PBS, and cell concentration adjusted to 1×10^8 cells/mL. Mice are inoculated subcutaneously (s.c.) on the right flank or right leg with a total of 1×10^7 cells (100 μL). Mice are randomized (5-15 mice/group) into four treatment groups and used when tumors reach a volume of […] (usually 7-11 days post-inoculation). Tumors are measured with vernier calipers and tumor volumes are estimated using the empirically derived formula: tumor volume (cm^3)=tumor length (cm)×tumor width (cm)×tumor depth (cm)/3.3. […] Tumor size is monitored every other day for the duration of the experiment.

Chk1 [3] = test: Western blot of Chk1 phosphorylation at serine 296 in HT29 cells (Example 10); format: cell-based, human; settings: gemcitabine 20 μM for two h, 22 additional h
Protocol: Phosphorylation at this site is not inhibited by wortmannin, which inhibits Atm and Atr. Therefore, the phosphorylation of serine 296 is distinct from phosphorylation at serines 317 and 345. […] Therefore, this approach can be used to monitor Chk1 activity in tumors in response to Chk1 activators. Further, this approach can be used to measure inhibition of Chk1 activation by Chk1 inhibitors.
Thus, HT 29 cells are treated with 20 μM gemcitabine for two h. The gemcitabine is washed out of the cell growth media and cells are incubated for 22 additional h. Protein lysates are prepared and separated by an SDS-polyacrylamide gel electrophoresis. Proteins are transferred to polyvinylidene fluoride (PVDF) membranes and probed with antisera (Cell Signalling) specific for phosphorlyated serine 296 (Cell Signalling). […] Further, HT29 cells treated with selective Chk1 inhibitors for 15 min show no serine 296 phosphorylation.

Structure (SMILES): Nc1ccn([C@@H]2O[C@H](CO)[C@@H](O)C2(F)F)c(=O)n1 [gemcitabine, 2′,2′-difluoro-2′-deoxycytidine]
- phosphorylation of Chk1 serines 317 and 345 (Chk1 [1]): results in the phosphorylation of both serines 317 and 345
- tumor growth [2]: A delay in tumor growth is observed
- phosphorylation of Chk1 serine 296 (Chk1 [3]): results in the phosphorylation of serine 296

Structure (SMILES): COC[C@H]1OC(=O)c2coc3c2[C@@]1(C)C1=C(C3=O)[C@@H]2CCC(=O)[C@@]2(C)C[C@H]1OC(C)=O [wortmannin]
- phosphorylation of Chk1 serine 296 (Chk1 [3]): not inhibited
